Test results published in PMC5394417, “Investigating the molecular mechanism of positive and negative allosteric modulators in the calcium-sensing receptor dimer” (Scientific Reports, 2017).

Molecular target: T1, HA-F688A CaSR mutant (Rattus norvegicus, UniProt P48442, F688A)
T1 construct: mGluR5 signal peptide (N); expressed in transfected cells; host or cells: HEK293T
T1 sequence (P48442 20-1079 F688A): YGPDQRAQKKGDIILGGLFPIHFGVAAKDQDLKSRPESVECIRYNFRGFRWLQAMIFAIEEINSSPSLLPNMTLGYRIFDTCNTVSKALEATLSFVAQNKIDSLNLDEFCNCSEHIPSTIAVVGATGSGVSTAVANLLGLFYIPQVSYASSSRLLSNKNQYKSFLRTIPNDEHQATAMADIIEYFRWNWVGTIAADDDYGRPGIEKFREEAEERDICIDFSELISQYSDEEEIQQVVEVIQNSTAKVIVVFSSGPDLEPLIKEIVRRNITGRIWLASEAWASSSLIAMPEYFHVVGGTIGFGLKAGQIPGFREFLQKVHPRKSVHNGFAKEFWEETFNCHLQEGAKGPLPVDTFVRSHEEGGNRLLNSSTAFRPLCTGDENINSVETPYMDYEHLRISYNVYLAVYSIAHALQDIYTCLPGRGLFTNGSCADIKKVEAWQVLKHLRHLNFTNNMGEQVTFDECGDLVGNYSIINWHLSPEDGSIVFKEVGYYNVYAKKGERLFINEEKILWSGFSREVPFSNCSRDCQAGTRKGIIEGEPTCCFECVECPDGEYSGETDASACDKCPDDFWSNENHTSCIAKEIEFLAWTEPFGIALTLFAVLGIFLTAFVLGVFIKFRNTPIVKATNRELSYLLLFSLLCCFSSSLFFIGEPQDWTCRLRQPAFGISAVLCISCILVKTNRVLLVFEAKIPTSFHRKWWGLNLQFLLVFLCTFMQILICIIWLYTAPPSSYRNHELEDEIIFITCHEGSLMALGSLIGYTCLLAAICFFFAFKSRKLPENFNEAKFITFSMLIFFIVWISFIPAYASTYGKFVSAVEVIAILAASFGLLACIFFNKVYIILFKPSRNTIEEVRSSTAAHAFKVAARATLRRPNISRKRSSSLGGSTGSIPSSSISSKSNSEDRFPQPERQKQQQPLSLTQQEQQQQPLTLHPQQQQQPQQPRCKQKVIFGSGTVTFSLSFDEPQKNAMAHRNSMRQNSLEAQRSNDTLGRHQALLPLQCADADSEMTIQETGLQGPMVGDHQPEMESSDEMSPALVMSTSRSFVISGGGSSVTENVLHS
Assay: IP-One assay, HEK293T transiently transfected
Format: cell-based

[Ca+2] [Ca^2+]
EC50 (Ca^2+ alone): 6.11 mM
pEC50 ± S.E.M. (Ca^2+ alone): 2.21 ± 0.01
Max ± S.E.M. (Ca^2+ alone, normalized to maximum response of WT CaSR): 86 ± 3.1%
EC50 (Ca^2+ with 1 μM NPS R-568): 2.86 mM
pEC50 ± S.E.M. (Ca^2+ with 1 μM NPS R-568): 2.54 ± 0.02
Max ± S.E.M. (Ca^2+ with 1 μM NPS R-568, normalized to maximum response with Ca^2+ alone for the construct): 110 ± 9%
EC50 (Ca^2+ with 5 μM NPS 2143): 8.31 mM
pEC50 ± S.E.M. (Ca^2+ with 5 μM NPS 2143): 2.08 ± 0.01
Max ± S.E.M. (Ca^2+ with 5 μM NPS 2143, normalized to maximum response with Ca^2+ alone for the construct): 79 ± 6.9%
